2 compounds from US20230075779A1, “METHODS AND COMPOSITIONS FOR TREATING CANCER OR VIRAL INFECTION WITH A PLA2G2D ANTAGONIST” (Apeximmune Therapeutics Inc., priority 2020, published 2023) can be followed below.

Entries after “also recorded” stand apart in the source; their conditions may differ.

For one assay, the target named is T1, PLA2G2D (Homo sapiens, UniProt Q9UNK4).
T1 sequence (Q9UNK4 21-145): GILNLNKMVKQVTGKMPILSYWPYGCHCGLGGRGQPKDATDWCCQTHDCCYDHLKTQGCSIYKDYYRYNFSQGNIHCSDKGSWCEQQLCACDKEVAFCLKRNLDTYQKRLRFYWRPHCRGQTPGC
In words: Reversal of PLA2G2D-Fc induced suppression of T cell proliferation in PBMC culture by sPLA2 inhibitor. Type of assay: cell-based. The conditions noted are these: 0-25 μM inhibitor, PBMC culture with wild type PLA2G2D-Fc.

For a further assay, the system named is PBMC cultures. In words: IFNγ and IL-2 levels in stimulated PBMC culture supernatants (MSD V-plex). Type of assay: cell-based, human. The conditions noted are these: soluble protein 0-20 μg/ml, 72 hours. How it is done:
(§1) The effect of human PLA2G2D-Fc on T cell activation was assessed in peripheral blood mononuclear cell (PBMC) or isolated T cell cultures. PBMC were isolated from leukoreduction system (LRS) chambers from healthy human donors by centrifugation over Ficoll-Paque Plus (GE Life Sciences) and labeled in a 5 μM CFSE solution (Molecular Probes) for 12 min at 37° C. and washed. 2×10^5 labeled PBMC per well of a 96 well round bottom plate were then stimulated with 1 μg/ml anti-CD3 (OKT3, Invitrogen) and 0.2 μg/ml anti-CD28 (CD28.2, Invitrogen) in the presence of soluble 0-20 μg/ml human PLA2G2D-Fc or control human IgG1-Fc protein (Sino Biological) as indicated in a final volume of 200 μl RPMI (Corning). PBMC cultures were incubated for 72 hours at 37° C. before the supernatants were harvested and measured for IFNγ and IL-2 levels using MSD V-plex assays (Meso Scale Discovery). T cell proliferation within the PBMC culture was simultaneously assessed by staining cells with fluorophore-conjugated anti-CD3, anti-CD4, and anti-CD8 antibodies (Biolegend) and Live/Dead Fixable dead cell stain (Molecular Probes), and running on a BD LSRFortessa X-20 flow cytometer (Becton Dickinson). FACS data was analyzed using FlowJo software.

Assay [1] concerns PBMC derived CD4+ and CD8+ T cells. In words: T cell proliferation (CFSE) in anti-CD3/anti-CD28 stimulated PBMC culture, soluble protein. Format: cell-based, human. The conditions noted are these: soluble protein 0-20 μg/ml, 72 hours. How it is done: as §1, with “software. […]” for “software.”
Another assay has as its system isolated T cells. In words: Proliferation of isolated T cell cultures with anti-CD3/anti-CD28 stimulation. Format: cell-based, human. How it is done:
To evaluate the effect of PLA2G2D protein on isolated T cells, […] protein as well as with 1 μg/ml anti-CD3 (OKT3) and 0.2 μg/ml anti-CD28 (CD28.2) in 100 μl of PBS. The following day, plates were washed twice with PBS before addition of T cells. T cells were isolated from PBMC using a Pan T Cell Isolation Kit (Miltenyi) and labeled with CFSE as described above. 1×10^5 purified and labeled T cells were added to each well of the coated plate in a final volume of 200 μl RPMI. T cells were allowed to proliferate for 72 hours at 37° C. before supernatants were collected for IFNγ and IL-2 analysis by MSD and proliferation was analyzed by FACS.

The subject of another assay is primary human T cells. Kind of assay: Binding of PLA2G2D-Fc to resting and activated primary human T cells (FACS). The following applies: 0-10 μg/ml. How it is done: To determine whether PLA2G2D elicits immune suppression by directly binding to T cells in vitro, the level of PLA2G2D binding was assessed on resting and activated primary human T cells. T cells were isolated from PBMC using a Pan T Cell Isolation Kit (Miltenyi) and cultured in the presence or absence of beads loaded with anti-human CD2, CD3, and CD28 antibodies (human T Cell Activation/Expansion Kit, Miltenyi) in RPMI for 48 hours at 37° C. Stimulated or unstimulated T cells were then harvested, washed, and incubated with 0-10 μg/ml of human PLA2G2D-Fc protein or human IgG1-Fc protein for 30 minutes at 4° C. Cells were washed 3 times with PBS and then stained with Alexa 488-conjugated goat anti-human IgG1 antibodies (Invitrogen) for 30 minutes at 4° C., washed, then analyzed by FACS.

For assay [2], the system named is CD4+ and CD8+ T cells in PBMC cultures. Kind of assay: T cell proliferation in stimulated PBMC culture, plate-immobilized protein. Type of assay: cell-based, human. The conditions noted are these: immobilized protein coated at 0-10 μg/ml. How it is done:
The effect of human PLA2G2D-Fc on T cell activation was assessed in peripheral blood mononuclear cell (PBMC) or isolated T cell cultures. […] PBMC cultures were incubated for 72 hours at 37° C. before the supernatants were harvested and measured for IFNγ and IL-2 levels using MSD V-plex assays (Meso Scale Discovery). T cell proliferation within the PBMC culture was simultaneously assessed by staining cells with fluorophore-conjugated anti-CD3, anti-CD4, and anti-CD8 antibodies (Biolegend) and Live/Dead Fixable dead cell stain (Molecular Probes), and running on a BD LSRFortessa X-20 flow cytometer (Becton Dickinson). FACS data was analyzed using FlowJo software.
To assess the effect of immobilized PLA2G2D protein on T cell proliferation in PBMC cultures, the same assay was utilized except 100 μl of 0-10 μg/ml human PLA2G2D-Fc or control human IgG1-Fc protein was coated overnight in PBS at 4° C. on 96-well flat bottom plates the day before PBMC were prepared and added along with anti-CD3 and anti-CD28 antibodies.

With `CCc1c(C(=O)C(N)=O)c2c(OCC(=O)O)cccc2n1Cc1ccccc1` [LY315920], the “reversal of immune suppression induced by PLA2G2D” value at PLA2G2D is “does not rescue immune suppression; also recorded: does not reverse immune suppression”.

Regarding “PLA2G2D-Fc: soluble human PLA2G2D-Fc protein (Sino Biological); the immunosuppressive protein studied”, the “levels of IFNγ and IL-2” value in the assay with PBMC cultures was “dose-dependently and significantly decreased”; with PBMC cultures (listed as PLA2G2D protein) it was “dose-dependently suppresses”. For the same compound, the “CD4+ and CD8+ T cell proliferation” value in assay [1] was “dose-dependently suppresses; also recorded: dose dependently suppressed”; in assay [1] (listed as PLA2G2D protein), “dose-dependently suppresses”; in assay [2], “suppressed”; in assay [2] (listed as PLA2G2D protein), “dose-dependently suppresses”. Moreover, the “proliferation of isolated T cell cultures” value with isolated T cells (immobilized protein coated at 0-10 μg/ml, 72 hours) is recorded as “dose-dependently suppresses”. In the assay on isolated T cells (soluble protein added instead of coated (data not shown)), the “suppressive effect on isolated T cells” value is “no suppressive effect”. Moreover, the “binding to activated CD4+ and CD8+ T cells” value in the assay with primary human T cells (stimulated T cells, compared with control human IgG1-Fc) is “preferentially binds”. Besides, the “binding to unstimulated T cells” value in the assay on primary human T cells (unstimulated T cells) is listed as “to a small degree”.
